Measurements as given in patent US20240083839A1, “COMPOSITIONS AND METHODS FOR TREATING NEURODEGENERATIVE DISEASES AND DISORDERS” (The Regents of the University of California, priority 2020, published 2024).
Where “and” joins values, the source holds several entries; their conditions need not be identical. Equal values may be shown once. Read-outs that look alike come from different tables or passages of the source.

Assays:
[1] = tested on: SirT1 levels in N2a-E4 cells; assay: SirT1 levels by AlphaLISA in ApoE4-transfected N2a cells; format: cell-based, murine
Method: Prompted by the emerging importance of the associations between ApoE4 and the expression/protein levels of SirT1, high-throughput screening (HTS) of the UCLA compound library was performed using AlphaLISA to detect SirT1 levels in murine neuroblastoma cells stably transfected with ApoE4 (E4-N2a) to identify SirT1 enhancers. […] In the in vivo study, mice were treated orally at 40 mkd (20 mg/kg BID) for 56 days and underwent assessment of cognition in the Novel Object Recognition (NOR) testing paradigm. […] The performance of A03-treated E4-AD mice (FIG. 5A) improved to level of non-transgenic vehicle-treated mice.
For PAMPA in this document: unit not given here.

SMILES | PAMPA (PAMPA) | SirT1 SOμM [1] | SirT1 SμM [1] | PAMPA (PAMPA; PAMPA)
CC(N)C(=O)OC(C)(C)Cc1cc(F)cc(F)c1 (stereo not drawn) [MP-14, 1-(3,5-difluorophenyl)-2-methylpropan-2-yl 2-aminopropanoate] | 2.17 | A, A (A >20%) | A, A (A >20%) | 
CC(N)C(=O)NC(C)(C)Cc1ccc(Cl)cc1 (stereo not drawn) [MP-15, 2-amino-N-(1-(4-chlorophenyl)-2-methylpropan-2-yl)propanamide] | 2.74 | B (B >50%) | A (A >20%) | 
CC(N)C(=O)NC(C)(C)Cc1ccc(F)c(F)c1 (stereo not drawn) [MP-22, -amino-N-(1-(3,4-difluorophenyl)-2-methylpropan-2-yl)propanamide] | 1.7 | C (C = 100% increase versus control) | A (A >20%) | 
CC(C)(Cc1ccc(F)c(F)c1)NC(=O)C1CCCN1C(=O)OC(C)(C)C (stereo not drawn) [MP-24, tert-butyl 2-(1-(3,4-difluorophenyl)-2-methylpropan-2-ylcarbamoyl)pyrrolidine-1-carboxylate] | 1.27 | a, a (a <250%) | a, a (a <250%) | 
C[C@@H](N)C(=O)NC(C)(C)Cc1ccc(Cl)cc1 [MP-27, (R)-2-amino-N-(1-(4-chlorophenyl)-2-methylpropan-2-yl)propanamide] | 2.72 | a, a (a <250%) | a, a (a <250%) | 
C[C@H](N)C(=O)NC(C)(C)Cc1ccc(Cl)cc1 [MP-28, (S)-2-amino-N-(1-(4-chlorophenyl)-2-methylpropan-2-yl)propanamide] | 2.78 and 2.86 | B (B >50%) | A (A >20%) | 
CC(C)(Cc1ccc(Cl)cc1)NC(=O)C(C)(C)N [MP-29, 2-amino-N-(1-(4-chlorophenyl)-2-methylpropan-2-yl)-2-methylpropanamide] | 2.1 | a, a (a <250%) | a, a (a <250%) | 
C[C@H](N)C(=O)NC(C)(C)Cc1ccc(F)c(F)c1 [MP-35, (S)-2-amino-N-(1-(3,4-difluorophenyl)-2-methylpropan-2-yl)propanamide] | 1.7 | A, A (A >20%) | A, A (A >20%) | 
C[C@@H](N)C(=O)NC(C)(C)Cc1ccc(F)c(F)c1 [MP-36, (R)-2-amino-N-(1-(3,4-difluorophenyl)-2-methylpropan-2-yl)propanamide] | 1.66 | a, a (a <250%) | a, a (a <250%) | 
CC(C)(Cc1ccc(F)c(F)c1)NC(=O)[C@@H](N)c1ccccc1 [MP-37] |  | a (a <250%) | A (A >20%) | 1.81
C[C@H](N)C(=O)NC(C)(C)Cc1cccc(C(F)(F)F)c1 [MP-39, (S)-2-amino-N-(2-methyl-1-(3-(trifluoromethyl)phenyl)propan-2-yl)propanamide] | 1.7 | A, A (A >20%) | A, A (A >20%) | 
C[C@@H](N)C(=O)NC(C)(C)Cc1cccc(C(F)(F)F)c1 [MP-40, (R)-2-amino-N-(2-methyl-1-(3-(trifluoromethyl)phenyl)propan-2-yl)propanamide] | 1.78 | A, A (A >20%) | A, A (A >20%) | 
C[C@H](N)C(=O)OC(C)(C)Cc1ccc(Cl)cc1 [MP-41, 1-(4-chlorophenyl)-2-methylpropan-2-yl L-alaninate] |  | A, A (A >20%) | A, A (A >20%) | 3.88
C[C@@H](N)C(=O)OC(C)(C)Cc1ccc(Cl)cc1 [MP-42, 1-(4-chlorophenyl)-2-methylpropan-2-yl D-alaninate] |  | a, a (a <250%) | a, a (a <250%) | 3.9
C[C@H](N)C(=O)NC(C)(C)Cc1cc(F)cc(F)c1 [MP-43, (S)-2-amino-N-(1-(3,5-difluorophenyl)-2-methylpropan-2-yl)propanamide] | 1.59 | A, A (A >20%) | A, A (A >20%) | 
C[C@@H](N)C(=O)NC(C)(C)Cc1cc(F)cc(F)c1 [MP-44, (R)-2-amino-N-(1-(3,5-difluorophenyl)-2-methylpropan-2-yl)propanamide] | 1.57 | A (A >20%) | a (a <250%) | 

Continued, in another order:

PAMPA (PAMPA) | SMILES | SirT1 SOμM [1] | SirT1 SμM [1] | PAMPA (PAMPA; PAMPA)
5.63 | CC(C)CC(N)C(=O)OC(C)(C)Cc1ccc(Cl)cc1 (stereo not drawn) [MP-05, 1-(4-chlorophenyl)-2-methylpropan-2-yl 2-amino-4-methylpentanoate] | B (B >50%) | A (A >20%) | 
4.22 | Cc1ccc(CC(C)(C)OC(=O)C(C)N)cc1 (stereo not drawn) [MP-06, 2-methyl-1-p-tolylpropan-2-yl 2-aminopropanoate] | B (B >50%) | A (A >20%) | 
4.15 | CC(C)(Cc1ccc(Cl)cc1)OC(=O)CN [MP-07, 1-(4-chlorophenyl)-2-methylpropan-2-yl 2-aminoethanoate] | B (B >50%) | A (A >20%) | 
4.65 | CC(C)C(N)C(=O)OC(C)(C)Cc1ccc(Cl)cc1 (stereo not drawn) [MP-08, 1-(4-chlorophenyl)-2-methylpropan-2-yl 2-amino-3-methylbutanoate] | C (C = 100% increase versus control) | A (A >20%) | 
4.16 | CC(N)C(=O)OC1(Cc2ccc(Cl)cc2)CCC1 (stereo not drawn) [MP-09, 1-(4-chlorobenzyl)cyclobutyl 2-aminopropanoate] | A, A (A >20%) | A, A (A >20%) | 
6.58 | CC(N)C(=O)OC1(Cc2ccc(Cl)cc2)CCCCC1 (stereo not drawn) [MP-10, 1-(4-chlorobenzyl)cyclohexyl 2-aminopropanoate] | B (B >50%) | A (A >20%) | 
5.28 | CCC(C)C(N)C(=O)OC(C)(C)Cc1ccc(Cl)cc1 (stereo not drawn) [MP-11, 1-(4-chlorophenyl)-2-methylpropan-2-yl 2-amino-3-methylpentanoate] | A, A (A >20%) | A, A (A >20%) | 
4.95 | CC(N)C(=O)OC(C)(C)CCc1ccc(Cl)cc1 (stereo not drawn) [MP-12, 4-(4-chlorophenyl)-2-methylbutan-2-yl 2-aminopropanoate] | A, A (A >20%) | A, A (A >20%) | 
6.49 | CC(C)(Cc1ccc(Cl)cc1)OC(=O)C(N)CCCCN (stereo not drawn) [MP-13, 1-(4-chlorophenyl)-2-methylpropan-2-yl 2,6-diaminohexanoate] | C (C = 100% increase versus control) | A (A >20%) | 
2.53 | CC(C)(Cc1ccc(Cl)cc1)OC(=O)C(N)CO (stereo not drawn) [MP-16, 1-(4-chlorophenyl)-2-methylpropan-2-yl 2-amino-3-hydroxypropanoate] | A, A (A >20%) | A, A (A >20%) | 
3.86 | CC(C)(Cc1ccc(Cl)cc1)OC(=O)CCN [MP-17, 1-(4-chlorophenyl)-2-methylpropan-2-yl 3-aminopropanoate] | C (C = 100% increase versus control) | A (A >20%) | 
4.01(2) | C[C@H](N)CC(=O)OC(C)(C)Cc1ccc(Cl)cc1 [MP-18, (S)-1-(4-chlorophenyl)-2-methylpropan-2-yl 3-aminobutanoate] | A (A >20%) | a (a <250%) | 
2.61 | CC(C)(Cc1ccc(Cl)cc1)OC(=O)C1CCCCN1 (stereo not drawn) [MP-19, 1-(4-chlorophenyl)-2-methylpropan-2-yl piperidine-2-carboxylate] | A, A (A >20%) | A, A (A >20%) | 
2.66 | CC(C)(Cc1ccc(Cl)cc1)OC(=O)C1CCCN1 (stereo not drawn) [MP-20, 1-(4-chlorophenyl)-2-methylpropan-2-yl pyrrolidine-2-carboxylate] | B (B >50%) | A (A >20%) | 
3.03 | CNC(C)C(=O)OC(C)(C)Cc1ccc(Cl)cc1 (stereo not drawn) [MP-23, 1-(4-chlorophenyl)-2-methylpropan-2-yl 2-(methylamino)propanoate] | a, a (a <250%) | a, a (a <250%) | 
1.23(2) | CC(C)(Cc1ccc(F)c(F)c1)NC(=O)C1CCCN1 (stereo not drawn) [MP-25, N-(1-(3,4-difluorophenyl)-2-methylpropan-2-yl)pyrrolidine-2-carboxamide] | B (B >50%) | A (A >20%) | 
3.45 | CC(N)C(=O)OC(Cc1ccc(Cl)cc1)c1ccccc1 (stereo not drawn) [MP-26] | A, A (A >20%) | A, A (A >20%) | 
2.89 | C[C@H](N)C(=O)NC(C)(Cc1ccc(Cl)cc1)c1ccc(Br)cc1 (stereo partly drawn) [MP-30] | A, A (A >20%) | A, A (A >20%) | 
4.92 | C[C@H](N)C(=O)OC1(Cc2ccc(Cl)cc2)CCCC1 [MP-34, 1-(4-chlorobenzyl)cyclopentyl alaninate] | A, A (A >20%) | A, A (A >20%) | 
1.76 | C[C@H](N)C(=O)NC(C)(C)Cc1ccc(Br)cc1 [MP-47, (S)-2-amino-N-(1-(4-bromophenyl)-2-methylpropan-2-yl)propanamide] | A (A >20%) | B (B >50%) | 
0.4 | C[C@H](N)C(=O)OC(C)(C)Cc1ccncc1 [MP-48, 2-methyl-1-(pyridin-4-yl)propan-2-yl alaninate] | B (B >50%) | A (A >20%) | 
3.36 | C#Cc1ccc(CC(C)(C)OC(=O)[C@H](C)N)cc1 [MP-50, 1-(4-ethynylphenyl)-2-methylpropan-2-yl alaninate] | B (B >50%) | A (A >20%) | 
